Results as given in patent publication US10329270B2, “Heteroaryl compounds as BTK inhibitors and uses thereof” (Merck Patent GmbH, priority 2013, dated 2019).

Each compound was assayed against T1, full-length human BTK (Homo sapiens, UniProt Q06187) (assay: Assay A: BTK IC50 Enzyme Assay (microfluidic off-chip mobility shift kinase assay)). Conditions: full-length human BTK, kinKDR peptide substrate, incubated 90 min at 27 C; read-out: Assay A (Time Dependent BTK Enzyme Assay IC50).
T1 construct: 2.5× stocks of full-length human BTK (08-080); purchased CarnaBio USA, Inc., Natick, Mass; 08-080
Assay type: biochemical
How it was run: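 Off-chip microfluidic mobility shift assay with full-length human BTK; phosphorylated and unphosphorylated peptide substrate were separated by charge/mass on a LabChip 3000.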

T1 sequence (Q06187 whole entry): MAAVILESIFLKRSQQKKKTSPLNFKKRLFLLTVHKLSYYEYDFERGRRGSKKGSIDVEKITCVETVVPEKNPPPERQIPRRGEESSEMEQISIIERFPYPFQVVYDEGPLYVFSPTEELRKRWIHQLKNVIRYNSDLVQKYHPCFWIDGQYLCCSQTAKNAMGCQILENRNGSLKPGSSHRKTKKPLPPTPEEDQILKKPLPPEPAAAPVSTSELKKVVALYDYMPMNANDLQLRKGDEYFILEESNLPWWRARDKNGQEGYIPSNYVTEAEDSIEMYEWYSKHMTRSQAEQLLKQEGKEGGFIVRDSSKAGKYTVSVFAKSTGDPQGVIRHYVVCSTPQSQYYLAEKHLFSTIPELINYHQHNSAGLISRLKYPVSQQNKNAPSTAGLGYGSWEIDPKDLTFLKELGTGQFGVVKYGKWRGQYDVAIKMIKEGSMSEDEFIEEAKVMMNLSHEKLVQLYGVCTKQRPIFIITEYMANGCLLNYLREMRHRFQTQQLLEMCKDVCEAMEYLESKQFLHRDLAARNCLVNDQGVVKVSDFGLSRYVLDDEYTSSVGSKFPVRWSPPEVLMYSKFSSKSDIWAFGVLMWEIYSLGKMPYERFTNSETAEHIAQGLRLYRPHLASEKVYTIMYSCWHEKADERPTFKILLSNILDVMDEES

IC50	Structure (SMILES)
1000 to 5000 nM	N#CN1CCCC(Nc2ncc(C(N)=O)c(Oc3ccc(Oc4ccccc4)cc3)n2)C1 (stereo not shown) [Compound 239, 2-[(1-cyanopiperidin-3-yl)amino]-4-(4-phenoxyphenoxy)pyrimidine-5-carboxamide]
< 100 nM	C=CC(=O)N1CCC(Nc2ccc(C(N)=O)c(Nc3cccc(C)c3)n2)C1 (stereo not shown) [Compound 50, 6-(1-Acryloyl-pyrrolidin-3-ylamino)-2-m-tolylamino-nicotinamide]
100 to 1000 nM	C=CC(=O)NC1CCN(c2cnc(Oc3ccc(Oc4cccc(F)c4)cc3)c(C(N)=O)c2)CC1 [Compound 212, 4-Acryloylamino-6′-[4-(3-fluoro-phenoxy)-phenoxy]-3,4,5,6-tetrahydro-2H-[1,3′]bipyridinyl-5′-carboxylic acid amide]
> 5000 nM	C=CC(=O)N[C@H]1CCN(c2ccc(C(N)=O)c(Oc3ccc(C(=O)N4CCOCC4)cc3)n2)C1 [Compound 101, 6-((S)-3-Acryloylamino-pyrrolidin-1-yl)-2-[4-(morpholine-4-carbonyl)-phenoxy]-nicotinamide]
< 100 nM	C=CC(=O)N1CCC(c2ccc(C(N)=O)c(Oc3ccc(Oc4cccc(C#N)c4)cc3)n2)C1 (stereo not shown) [Compound 185, 6-(1-Acryloylpyrrolidin-3-yl)-2-(4-(3-cyanophenoxy)phenoxy)nicotinamide]
1000 to 5000 nM	N#CN1CCC(c2cnc(Oc3ccc(Oc4ccccc4)cc3)c(C(N)=O)c2)CC1 [Compound 244, 5-(1-cyanopiperidin-4-yl)-2-(4-phenoxyphenoxy)pyridine-3-carboxamide]
100 to 1000 nM	C=CC(=O)N[C@H]1CCN(c2nc(Nc3ccc(C(=O)NC(C)(C)C)cc3)c(C(N)=O)cc2F)C1 [Compound 5, 6-((S)-3-Acryloylamino-pyrrolidin-1-yl)-2-(4-tert-butylcarbamoyl-phenylamino)-5-fluoro-nicotinamide]
< 100 nM	C=CC(=O)N[C@H]1CCN(c2ccc(C(N)=O)c(Oc3ccc(Oc4cccc(C#N)c4)cc3)n2)C1 [Compound 79, (S)-6-(3-acrylamidopyrrolidin-1-yl)-2-(4-(3-cyanophenoxy)phenoxy)nicotinamide]
100 to 1000 nM	C=CC(=O)N[C@H]1C[C@@H](Nc2ncc(C(N)=O)c(N)n2)C1 [Compound 143, 2-(3-Acryloylamino-cyclobutylamino)-4-amino-pyrimidine-5-carboxylic acid amide]
> 5000 nM	N#CN1CC2(CC(Nc3ncc(C(N)=O)c(Oc4ccc(Oc5ccccc5)cc4)n3)C2)C1 [Compound 242, 2-[(2-cyano-2-azaspiro[3.3]heptan-6-yl]amino)-4-(4-phenoxyphenoxy)pyrimidine-5-carboxamide]
100 to 1000 nM	C=CC(=O)N[C@H]1CCN(c2cc(Oc3ccc(Oc4ccc(C)cc4)cc3)c(C(N)=O)cn2)C1 [Compound 114, (S)-6-(3-acrylamidopyrrolidin-1-yl)-4-(4-(p-tolyloxy)phenoxy)nicotinamide]
1000 to 5000 nM	N#CN1CCCC(Nc2cnc(Oc3ccc(Oc4ccccc4)cc3)c(C(N)=O)c2)C1 (stereo not shown) [Compound 247, 5-[(1-cyanopiperidin-3-yl)amino]-2-(4-phenoxyphenoxy)pyridine-3-carboxamide]
1000 to 5000 nM	C=CC(=O)N1CCC2(CC(Nc3ncc(C(N)=O)c(Oc4ccc(Oc5ccccc5)cc4)n3)C2)C1 (stereo not shown) [Compound 182, 2-((6-acryloyl-6-azaspiro[3.4]octan-2-yl)amino)-4-(4-phenoxyphenoxy)pyrimidine-5-carboxamide]
100 to 1000 nM	C=CC(=O)N1CCC(Nc2ncc(C(N)=O)c(Oc3ccc(Oc4ccccc4)cc3)n2)CC12CCC2 (stereo not shown) [Compound 175, 2-(5-Acryloyl-5-aza-spiro[3.5]non-8-ylamino)-4-(4-phenoxy-phenoxy)-pyrimidine-5-carboxylic acid amide]
< 100 nM	C=CC(=O)N[C@H]1CCN(c2ccc(C(N)=O)c(Nc3ccc(N4CCCCC4)nc3)n2)C1 [Compound 39, (S)-6-(3-acrylamidopyrrolidin-1-yl)-2-((6-(piperidin-1-yl)pyridin-3-yl)amino)nicotinamide]
1000 to 5000 nM	C/C=C/C(=O)N1CCC(Nc2cnc(Oc3ccc(Oc4ccccc4)cc3)c(C(N)=O)c2)CC1 [Compound 234, 5-[1-((E)-But-2-enoyl)-piperidin-4-ylamino]-2-(4-phenoxy-phenoxy)-nicotinamide]
< 100 nM	C=CC(=O)N[C@@H]1CCCN(c2ccc(C(N)=O)c(Nc3ccc(CCN4CCCC4)cc3)n2)C1 [Compound 56, (R)-3-Acryloylamino-6′-[4-(2-pyrrolidin-1-yl-ethyl)-phenylamino]-3,4,5,6-tetrahydro-2H-[1,2′]bipyridinyl-5′-carboxylic acid amide]

IC50	Structure (SMILES)
100 to 1000 nM	C=CC(=O)N[C@@H]1CCN(c2ncc(C(N)=O)c(N)n2)C1 [Compound 144, 2-((R)-3-Acryloylamino-pyrrolidin-1-yl)-4-amino-pyrimidine-5-carboxylic acid amide]
< 100 nM	C=CC(=O)N1CCCC(c2ccc(C(N)=O)c(Nc3ccc(CCN4CCCC4)cc3)n2)C1 (stereo not shown) [Compound 42, 1′-Acryloyl-6-[4-(2-pyrrolidin-1-yl-ethyl)-phenylamino]-1′,2′,3′,4′,5′,6′-hexahydro-[2,3′]bipyridinyl-5-carboxylic acid amide]
< 100 nM	C=CC(=O)N1CCC[C@H](c2cnc(Oc3ccc(Oc4ccccc4)cc3)c(C(N)=O)c2)C1 [Compound 124, (R)-5-(1-acryloylpiperidin-3-yl)-2-(4-phenoxyphenoxy)nicotinamide]
1000 to 5000 nM	C/C=C/C(=O)N1CCC(Nc2cnc(Oc3ccc(Oc4ccccc4)cc3)c(C(N)=O)c2)C1 (stereo not shown) [Compound 202, 5-[1-((E)-But-2-enoyl)-pyrrolidin-3-ylamino]-2-(4-phenoxy-phenoxy)-nicotinamide]
1000 to 5000 nM	C=CC(=O)NC1CCCN(c2cnc(Oc3ccc(Oc4cccc(F)c4)cc3)c(C(N)=O)c2)C1 (stereo not shown) [Compound 220, 3-Acryloylamino-6′-[4-(3-fluoro-phenoxy)-phenoxy]-3,4,5,6-tetrahydro-2H-[1,3′]bipyridinyl-5′-carboxylic acid amide]
1000 to 5000 nM	C=CC(=O)N1CC=C(c2cncc(C(N)=O)c2Nc2ccc(C(=O)N3CCCCC3)cc2)CC1 [Compound 169, 1′-Acryloyl-4-[4-(piperidine-1-carbonyl)-phenylamino]-1′,2′,3′,6′-tetrahydro-[3,4′]bipyridinyl-5-carboxylic acid amide]
100 to 1000 nM	C=CC(=O)N[C@H]1CCN(c2nc(Nc3ccc(CCN4CCCC4)cc3)c(F)cc2C(N)=O)C1 [Compound 4, 2-((S)-3-Acryloylamino-pyrrolidin-1-yl)-5-fluoro-6-[4-(2-pyrrolidin-1-yl-ethyl)-phenylamino]-nicotinamide]
1000 to 5000 nM	N#CNC(=O)N1CCN(c2ccc(C(N)=O)c(Oc3ccc(Oc4ccccc4)cc3)n2)CC1 [Compound 237, 4-(5-carbamoyl-6-(4-phenoxyphenoxy)pyridin-2-yl)-N-cyanopiperazine-1-carboxamide]
< 100 nM	C=CC(=O)N1CCC(c2ccc(C(N)=O)c(Oc3ccc(Oc4ccccc4)cc3)n2)CC1 [Compound 64, 6-(1-acryloylpiperidin-4-yl)-2-(4-phenoxyphenoxy)nicotinamide]
< 100 nM	C=CC(=O)N1CCC(O)(c2ccc(C(N)=O)c(Oc3ccc(Oc4ccccc4)cc3)n2)C(O)C1 (stereo not shown) [Compound 77, 1′-Acryloyl-3′,4′-dihydroxy-6-(4-phenoxy-phenoxy)-1′,2′,3′,4′,5′,6′-hexahydro-[2,4′]bipyridinyl-5-carboxylic acid amide]
> 5000 nM	C=CC(=O)N[C@H]1CCN(c2ccc(C(N)=O)c(NC3CCN(C)CC3)n2)C1 [Compound 62, 6-((S)-3-Acryloylamino-pyrrolidin-1-yl)-2-(1-methyl-piperidin-4-ylamino)-nicotinamide]
1000 to 5000 nM	N#C/C(=C\C1CC1)C(=O)N1C[C@@H]2C[C@H]1CN2c1ccc(C(N)=O)c(Oc2ccc(Oc3ccccc3)cc2)n1 [Compound 190, 6-((1S,4S)-5-((E)-2-cyano-3-cyclopropylacryloyl)-2,5-diazabicyclo[2.2.1]heptan-2-yl)-2-(4-phenoxyphenoxy)nicotinamide]
1000 to 5000 nM	C=CC(=O)N1CCC(c2ccc(C(N)=O)c(Oc3ccc(NC(=O)c4ccccc4)cc3)n2)C1 (stereo not shown) [Compound 99, 6-(1-acryloylpyrrolidin-3-yl)-2-(4-benzamidophenoxy)nicotinamide]
1000 to 5000 nM	C/C=C/C(=O)N1CCC(Nc2cnc(Oc3ccc(Oc4cccc(F)c4)cc3)c(C(N)=O)c2)C1 (stereo not shown) [Compound 229, 5-[1-((E)-But-2-enoyl)-pyrrolidin-3-ylamino]-2-[4-(3-fluoro-phenoxy)-phenoxy]-nicotinamide]
< 100 nM	C=CC(=O)N1CCC(Nc2cnc(Oc3ccc(Oc4ccccc4)cc3)c(C(N)=O)c2)C1 (stereo not shown) [Compound 201, 5-(1-Acryloyl-pyrrolidin-3-ylamino)-2-(4-phenoxy-phenoxy)-nicotinamide]
> 5000 nM	C/C=C/C(=O)NC1CCN(c2cnc(Oc3ccc(Oc4ccccc4)cc3)c(C(N)=O)c2)CC1 [Compound 200, 4-((E)-But-2-enoylamino)-6′-(4-phenoxy-phenoxy)-3,4,5,6-tetrahydro-2H-[1,3′]bipyridinyl-5′-carboxylic acid amide]

Structure (SMILES)	IC50
C=CC(=O)N1C[C@@H]2CCC[C@H]1CN(c1ncc(C(N)=O)c(Oc3ccc(Oc4ccccc4)cc3)n1)C2 [Compound 208, 2-((1 S,5R)-9-acryloyl-3,9-diazabicyclo[3.3.2]decan-3-yl)-4-(4-phenoxyphenoxy)pyrimidine-5-carboxamide]	100 to 1000 nM
C=CC(=O)N1C2CCC1CC(c1ccc(C(N)=O)c(Oc3ccc(Oc4ccccc4)cc3)n1)C2 (stereo not shown) [Compound 71, 6-(8-Acryloyl-8-aza-bicyclo[3.2.1]oct-3-yl)-2-(4-phenoxy-phenoxy)-nicotinamide]	< 100 nM
C=CC(=O)N1C2CC1CN(c1ncc(C(N)=O)c(Oc3ccc(Oc4ccccc4)cc3)n1)C2 [Compound 193, 2-(6-acryloyl-3,6-diazabicyclo[3.1.1]heptan-3-yl)-4-(4-phenoxyphenoxy)pyrimidine-5-carboxamide]	100 to 1000 nM
C=CC(=O)N1[C@@H]2CC[C@H]1CC(c1cnc(C(N)=O)cn1)C2 (stereo partly shown) [Compound 136]	1000 to 5000 nM
